We go through 20 compounds from patent publication US6583180B2, “Glucocorticoid receptor modulators” (Abbott Laboratories, priority 2001, dated 2003).

For the assay, the target named is T1, Human glucocorticoid receptors (Homo sapiens, UniProt P04150).
T1 construct: made in house; host or cells: Sf9 insect cells, recombinant baculovirus (BAC-TO-BAC)
T1 sequence (P04150 1-777): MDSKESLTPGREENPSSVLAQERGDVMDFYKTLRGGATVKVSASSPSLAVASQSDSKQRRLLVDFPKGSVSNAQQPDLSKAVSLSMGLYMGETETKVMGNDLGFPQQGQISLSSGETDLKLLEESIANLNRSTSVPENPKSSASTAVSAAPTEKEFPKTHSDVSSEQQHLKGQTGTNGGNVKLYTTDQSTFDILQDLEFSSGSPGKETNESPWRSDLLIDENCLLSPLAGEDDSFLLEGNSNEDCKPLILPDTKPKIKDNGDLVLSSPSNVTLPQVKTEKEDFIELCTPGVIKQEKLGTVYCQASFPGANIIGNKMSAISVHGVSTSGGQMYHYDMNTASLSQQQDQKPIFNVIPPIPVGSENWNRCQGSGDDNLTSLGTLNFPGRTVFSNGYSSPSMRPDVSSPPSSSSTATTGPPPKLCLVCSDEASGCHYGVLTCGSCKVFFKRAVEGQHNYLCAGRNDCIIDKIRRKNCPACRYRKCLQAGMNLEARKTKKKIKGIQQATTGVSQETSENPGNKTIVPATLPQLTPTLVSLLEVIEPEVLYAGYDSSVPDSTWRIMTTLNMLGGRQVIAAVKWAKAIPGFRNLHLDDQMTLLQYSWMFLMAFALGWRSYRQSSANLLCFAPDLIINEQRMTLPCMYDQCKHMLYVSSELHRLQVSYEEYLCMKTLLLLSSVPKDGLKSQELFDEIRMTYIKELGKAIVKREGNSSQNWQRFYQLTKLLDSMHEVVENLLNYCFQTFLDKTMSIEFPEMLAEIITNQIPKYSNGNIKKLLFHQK
Put plainly: Radioligand filter binding assay, displacement of 3[H]-dexamethasone from hGR. The note with it: read-out: GR Binding (% Inhibition at 1.7 μM). The source says:
Dexamethasone hereafter referred to as dex was purchased from SIGMA. […] Human glucocorticoid receptors were extracted from Sf9 cells infected with a recombinant baculovirus transfer vector containing the cloned hGR genes. Recombinant baculovirus was generated utilizing the BAC-TO-BAC expression system (Life Technologies) in accordance to instruction from the supplier. The hGR coding sequences were cloned into a baculovirus transfer vector by standard techniques. The recombinant baculoviruses expressing hGR were amplified and used to infect Sf9 cells. Infected cells were harvested 48 hrs post infection. […] The concentration of hGR in the extract was measured as specific ^3[H]-dex binding with the G25-assay as described in J. Steroid Biochem. Molec. […] The extract was aliquoted and stored at −70° C.
The filter binding assay: Dilution series of the test compounds and dex as reference were made from 10 mM (1 mM dex) stock solutions in DMSO. 10 μl of the dilutions was added in duplicates to the wells. The cell extracts were diluted 10 fold in EPMo+MTG buffer (1 mM EDTA, HPO4 20 mM (pH8), 6 mM MTG). […] 110 μl of the diluted ^3[H]-dex were added to the wells. The final concentration of hGR in the experiment was estimated to 1 nM. All preparations were made in […] on ice and with +4° C. temperated buffers. The plates were incubated over night at +4° C. (15-20 hours).
The incubation was stopped by filtration through GF/B filter on the Tomtec Cellharvester. The filtration on the Tomtec Cellharvester was programmed as follows: 1) Preparation before filtration with EP buffer (1 mM EDTA 20 mM HPO4 (pH8)) 2×[Wash/Asp 0.6 sec., Asp 0.5 sec.]; 2) Prewet of GF/B filter with EP+PEI buffer (EP buffer, 0.3% Polyethylenimine) [Asp 0.8 sec.]; 3) Filtration/harvesting of the 96-well incubation plate 3×[Wash/Asp 0.6 sec., Asp 0.5 sec.]. The GF/B filter was dried for at least 1 hour at 65° C. A MeltiLex scintillation wax was melted onto the filter with the Microsealer. The filter was placed in a samplebag, which was thereafter trimmed with scissors to fit the filter cassette. The cassette were placed in the Microbeta and measured for 1 min/position, returning ccpm (corrected counts per minute).
b=((bmax−bmin)/(1+(I/IC50)^S))+bminI
The Microbeta-instrument generates the mean cpm (counts per minute) value/minute and corrects for individual variations between the detectors thus generating corrected cpm values.
The inhibition is the drop in the measured response relative to a control, in per cent. With `CC[C@H](C)[C@H](NC(=O)CCCOc1ccc(Oc2ccc(CN(Cc3ccccc3)c3cccc(NS(C)(=O)=O)c3C)cc2)cc1)C(=O)O` [Example 259, N-[4-(4-{4-[(benzyl{2-methyl-3-[(methylsulfonyl)amino]phenyl}amino)methyl]phenoxy}phenoxy)butanoyl]-L-isoleucine], the inhibition at 1.7 µM was 91.2%.

In the case of `Cc1c(NS(C)(=O)=O)cccc1N(Cc1ccccc1)Cc1ccc(Oc2ccc(OCCCC(=O)N[C@@H](CCC(N)=O)C(=O)O)cc2)cc1` [Example 260, N˜2˜-[4-(4-{4-[(benzyl{2-methyl-3-[(methylsulfonyl)amino]phenyl}amino)methyl]phenoxy}phenoxy)butanoyl]-L-glutamine], the inhibition at 1.7 µM worked out at 91.3%.

For `Cc1c(NS(C)(=O)=O)cccc1N(Cc1ccccc1)Cc1ccc(Oc2ccc(OCCCCC(=O)NCC(=O)O)cc2)cc1` [Example 261, N-[5-(4-{4-[(benzyl{2-methyl-3-[(methylsulfonyl)amino]phenyl}amino)methyl]phenoxy}phenoxy)pentanoyl]glycine], the inhibition at 1.7 µM came to 91.5%.

On to `Cc1c(NS(C)(=O)=O)cccc1N(Cc1ccccc1)Cc1ccc(Oc2ccc(OCCCCC(=O)NCCC(=O)O)cc2)cc1` [Example 262, N-[5-(4-{4-[(benzyl{2-methyl-3-[(methylsulfonyl)amino]phenyl}amino)methyl]phenoxy}phenoxy)pentanoyl]-beta-alanine], for which the inhibition at 1.7 µM is 92.2%.

In the case of `Cc1c(NS(C)(=O)=O)cccc1N(Cc1ccccc1)Cc1ccc(Oc2ccc(OCCCCC(=O)NCCCC(=O)O)cc2)cc1` [Example 263, 4-{[5-(4-{4-[(benzyl{2-methyl-3-[(methylsulfonyl)amino]phenyl}amino)methyl]phenoxy}phenoxy)pentanoyl]amino}butanoic acid], the inhibition at 1.7 µM stood at 91.7%.

`Cc1c(NS(C)(=O)=O)cccc1N(Cc1ccccc1)Cc1ccc(Oc2ccc(OCCCCC(=O)N(C)CC(=O)O)cc2)cc1` [Example 264, N-[5-(4-{4-[(benzyl{2-methyl-3-[(methylsulfonyl)amino]phenyl}amino)methyl]phenoxy}phenoxy)pentanoyl]-N-methylglycine]: the inhibition at 1.7 µM was found to be 89.5%.

On to `Cc1c(NS(C)(=O)=O)cccc1N(Cc1ccccc1)Cc1ccc(Oc2ccc(OCCCCC(=O)N[C@@H](CCC(=O)O)C(=O)O)cc2)cc1` [Example 265, N-[5-(4-{4-[(benzyl{2-methyl-3-[(methylsulfonyl)amino]phenyl}amino)methyl]phenoxy}phenoxy)pentanoyl]-L-glutamic acid], for which the inhibition at 1.7 µM was 90%.

Regarding `Cc1c(NS(C)(=O)=O)cccc1N(Cc1ccccc1)Cc1ccc(Oc2ccc(OCCCCC(=O)N[C@H](C(=O)O)C(C)C)cc2)cc1` [Example 266, N-[5-(4-{4-[(benzyl{2-methyl-3-[(methylsulfonyl)amino]phenyl}amino)methyl]phenoxy}phenoxy)pentanoyl]-L-valine], the inhibition at 1.7 µM stood at 90.7%.

As to `Cc1c(NS(C)(=O)=O)cccc1N(Cc1ccccc1)Cc1ccc(Oc2ccc(OCCCCC(=O)N3CCC[C@H]3C(=O)O)cc2)cc1` [Example 267, 1-[5-(4-{4-[(benzyl{2-methyl-3-[(methylsulfonyl)amino]phenyl}amino)methyl]phenoxy}phenoxy)pentanoyl]-L-proline], the inhibition at 1.7 µM is 92.2%.

Take `Cc1c(NS(C)(=O)=O)cccc1N(Cc1ccccc1)Cc1ccc(Oc2ccc(OCCCCC(=O)NC3CCOC3=O)cc2)cc1` (centres unmarked) [Example 268, 5-(4-{4-[(benzyl{2-methyl-3-[(methylsulfonyl)amino]phenyl}amino)methyl]phenoxy}phenoxy)-N-(2-oxotetrahydrofuran-3-yl)pentanamide]: the inhibition at 1.7 µM turned out to be 90.8%.

As for `Cc1c(NS(C)(=O)=O)cccc1N(Cc1ccccc1)Cc1ccc(Oc2ccc(OCCCCC(=O)N[C@@H](CO)C(=O)O)cc2)cc1` [Example 269, N-[5-(4-{4-[(benzyl{2-methyl-3-[(methylsulfonyl)amino]phenyl}amino)methyl]phenoxy}phenoxy)pentanoyl]-L-serine], the inhibition at 1.7 µM was 90.7%.

For the compound `CC[C@H](C)[C@H](NC(=O)CCCCOc1ccc(Oc2ccc(CN(Cc3ccccc3)c3cccc(NS(C)(=O)=O)c3C)cc2)cc1)C(=O)O` [Example 270, N-[5-(4-{4-[(benzyl{2-methyl-3-[(methylsulfonyl)amino]phenyl}amino)methyl]phenoxy}phenoxy)pentanoyl]-L-isoleucine], the inhibition at 1.7 µM turned out to be 91.1%.

With `Cc1c(NS(C)(=O)=O)cccc1N(Cc1ccccc1)Cc1ccc(Oc2ccc(OCC(=O)NCCCC(=O)O)cc2)cc1` [Example 271, 4-{[(4-{4-[(benzyl{2-methyl-3-[(methylsulfonyl)amino]phenyl}amino)methyl]phenoxy}phenoxy)acetyl]amino}butanoic acid], the inhibition at 1.7 µM is 91%.

Take `Cc1c(NS(C)(=O)=O)cccc1N(Cc1ccccc1)Cc1ccc(Oc2ccc(OCC(=O)N(C)CC(=O)O)cc2)cc1` [Example 272, N-[(4-{4-[(benzyl{2-methyl-3-[(methylsulfonyl)amino]phenyl}amino)methyl]phenoxy}phenoxy)acetyl]-N-methylglycine]: the inhibition at 1.7 µM came out at 90.2%.

In the case of `Cc1c(NS(C)(=O)=O)cccc1N(Cc1ccccc1)Cc1ccc(Oc2ccc(OCC(=O)N[C@H](C(=O)O)C(C)C)cc2)cc1` [Example 273, N-[(4-{4-[(benzyl{2-methyl-3-[(methylsulfonyl)amino]phenyl}amino)methyl]phenoxy}phenoxy)acetyl]-L-valine], the inhibition at 1.7 µM came out at 91.2%.

`Cc1c(NS(C)(=O)=O)cccc1N(Cc1ccccc1)Cc1ccc(Oc2ccc(OCC(=O)NC3CCOC3=O)cc2)cc1` (centres unmarked) [Example 274, 2-(4-{4-[(benzyl{2-methyl-3-[(methylsulfonyl)amino]phenyl}amino)methyl]phenoxy}phenoxy)-N-(2-oxotetrahydrofuran-3-yl)acetamide]: the inhibition at 1.7 µM amounted to 89.9%.

`Cc1c(NS(C)(=O)=O)cccc1N(Cc1ccccc1)Cc1ccc(Oc2ccc(OCC(=O)N[C@@H](CO)C(=O)O)cc2)cc1` [Example 275, N-[(4-{4-[(benzyl{2-methyl-3-[(methylsulfonyl)amino]phenyl}amino)methyl]phenoxy}phenoxy)acetyl]-L-serine]: the inhibition at 1.7 µM was 90.5%.

Regarding `Cc1c(NS(C)(=O)=O)cccc1N(Cc1ccccc1)Cc1ccc(Oc2ccc(OCC(=O)N[C@@H](CC(N)=O)C(=O)O)cc2)cc1` [Example 276, N˜2˜-[(4-{4-[(benzyl{2-methyl-3-[(methylsulfonyl)amino]phenyl}amino)methyl]phenoxy}phenoxy)acetyl]-L-asparagine], the inhibition at 1.7 µM stood at 89.2%.

On to `Cc1c(NS(C)(=O)=O)cccc1N(Cc1ccccc1)Cc1ccc(Oc2ccc(OCC(=O)NN)cc2)cc1` [Example 277, N-[3-(benzyl{4-[4-(2-hydrazino-2-oxoethoxy)phenoxy]benzyl}amino)-2-methylphenyl]methanesulfonamide], for which the inhibition at 1.7 µM is 90.6%.

Turning to `Cc1c(NS(C)(=O)=O)cccc1N(Cc1ccccc1)Cc1ccc(Oc2cccc(OC[C@@H]3CCC(=O)N3)c2)cc1` [Example 278, N-(3-{benzyl[4-(3-{[(2S)-5-oxopyrrolidin-2-yl]methoxy}phenoxy)benzyl]amino}-2-methylphenyl)methanesulfonamide], the inhibition at 1.7 µM was 90.1%.
